“And” between values parts separate entries of the source, which are not always exact repeats. Equal values may be shown once. Read-outs that look alike come from different tables or passages of the source.
Experiments:
CYP2B6 = target: T1, CYP2B6 (Homo sapiens, UniProt P20813); assay: CYP2B6 inhibition assay (substrate EFC)
T1 sequence (P20813 1-491): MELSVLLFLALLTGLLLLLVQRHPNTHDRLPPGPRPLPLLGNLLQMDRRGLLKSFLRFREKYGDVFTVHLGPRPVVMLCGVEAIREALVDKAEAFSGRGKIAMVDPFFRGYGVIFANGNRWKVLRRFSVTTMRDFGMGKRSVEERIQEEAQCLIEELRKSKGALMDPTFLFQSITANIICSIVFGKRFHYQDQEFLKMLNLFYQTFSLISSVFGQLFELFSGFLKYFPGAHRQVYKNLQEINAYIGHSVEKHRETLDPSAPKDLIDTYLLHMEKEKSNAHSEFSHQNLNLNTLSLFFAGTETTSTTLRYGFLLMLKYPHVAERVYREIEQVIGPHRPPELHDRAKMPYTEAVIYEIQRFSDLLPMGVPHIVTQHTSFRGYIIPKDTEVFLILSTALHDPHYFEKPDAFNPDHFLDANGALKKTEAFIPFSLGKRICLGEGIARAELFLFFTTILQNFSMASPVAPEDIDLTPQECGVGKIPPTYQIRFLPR
Excerpt: (§1) The CYP inhibition assays used microsomes (Supersomes®, Gentest Corp., Woburn, Mass.) prepared from insect cells, each expressing an individual CYP subtype (CYP1A2, CYP2A6, CYP2B6, CYP2C8, CYP2C9, CYP2C19, CYP2D6, CYP2E1 or CYP3A4) expressed from the corresponding human CYP cDNA using a baculovirus expression vector. The microsomes also incorporated supplemental cDNA-expressed human reductase and/or cytochrome b5, as these enzymes stimulate the activity of the CYPs, allowing for a reduction in the amount of enzyme required per reaction (Gentest Corp.). The assays monitored, via fluorescence detection, the formation of a fluorescent metabolite following incubation of the microsomes with a specific CYP substrate. […] Reactions (0.2 mL) were performed in 96-well microtitre plates at 37° C. in the presence of an NADPH regenerating system [NADP+, glucose-6-phosphate (G6P), glucose-6-phosphate dehydrogenase (G6PDH)] and MgCl2. […] All determinations were performed in duplicate. The reagent solutions used for all of the CYP subtype assays, except CYP2C19 and CYP3A4, were prepared by MBDI. For CYP2C19 and CYP3A4, complete reagent kits purchased from Gentest Corp. (CYP2C19/CEC: Cat. No. HTS-4000, Lot No. 1; CYP3A4/BFC: Cat. No. HTS-1000, Lot No. 1) were used to perform the assays.
(§2) Eight inhibitor and test compound concentrations were tested using 3-fold serial dilutions. The microtitre plates containing 0.1 mL/well of the latter mixture were pre-warmed to 37° C. in an incubator. […] The amount of metabolic product formed was quantified by fluorescence detection in a fluorescence plate reader utilizing excitation and emission filters that had been optimized for the detection of each metabolite.
(§3) Data Analysis—The mean of the duplicate fluorescent signals in the presence and absence (vehicle control) of each compound was calculated and corrected for the background noise. Percent inhibition was calculated as the difference in the corrected fluorescent signals in the absence and presence of the compound, divided by the corrected fluorescent signal in the absence of compound, multiplied by 100%.

CYP2A6 = target: T2, CYP2A6 (Homo sapiens, UniProt P11509); assay: CYP2A6 inhibition assay (substrate coumarin)
T2 sequence (P11509 1-494): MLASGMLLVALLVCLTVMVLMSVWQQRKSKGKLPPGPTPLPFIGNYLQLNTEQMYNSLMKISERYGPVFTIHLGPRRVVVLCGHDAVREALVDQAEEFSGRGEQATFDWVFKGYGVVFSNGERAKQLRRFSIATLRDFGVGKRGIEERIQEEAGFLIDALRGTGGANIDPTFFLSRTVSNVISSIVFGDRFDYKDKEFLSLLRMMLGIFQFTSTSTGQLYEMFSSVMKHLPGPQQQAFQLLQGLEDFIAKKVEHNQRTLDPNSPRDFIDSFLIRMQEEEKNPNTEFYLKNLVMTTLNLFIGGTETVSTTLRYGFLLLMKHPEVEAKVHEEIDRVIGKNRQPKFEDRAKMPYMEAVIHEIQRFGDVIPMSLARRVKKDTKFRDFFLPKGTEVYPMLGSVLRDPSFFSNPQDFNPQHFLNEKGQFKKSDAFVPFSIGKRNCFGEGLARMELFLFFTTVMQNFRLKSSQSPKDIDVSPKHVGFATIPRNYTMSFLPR
Excerpt: as §1, §2, §3

[1] = tested on: patients with mild to moderate hypertension, hyperlipidemia and diabetes mellitus; assay: 14-week open-label forced dose-escalation study of P5P in hypertensive diabetics (concomitant statin); format: in vivo, human; conditions: individual patient; for Chol:HDL ratio V.1 / HDL cholesterol V.1 / LDL cholesterol V.1 / Total cholesterol V.1 / Triglycerides V.1: V1: 1st visit, Week One, Day 1, on statin; for Triglycerides V.12 / Chol:HDL ratio V.12 / HDL cholesterol V.12 / LDL cholesterol V.12 / Total cholesterol V.12: V12: Last Visit, Week 14, Day 98; for Triglycerides V.12: concomitant P5P (250 to 750 mg once daily) and statin; for Chol:HDL ratio V.12 / HDL cholesterol V.12 / LDL cholesterol V.12 / Total cholesterol V.12: concomitant P5P and statin
Excerpt: Patient Definition-Patients meeting all of the inclusion criteria and none of the exclusion criteria were eligible for enrollment. The primary inclusion criteria were hypertension and diabetes. At screening all patients must present with or have a history of, uncomplicated, stable, mild to moderate hypertension, (supine diastolic blood pressure SUDBP ≧90 and ≦114 mm Hg) regardless of use or non-use of treatment for this disease. […] The hypertensive patients must present with and have a history (>24 months) of diabetes mellitus (type 1 or 2), that is controlled or uncontrolled, at both screening and treatment initiation visits, to be eligible for inclusion in the study. Other than having diabetes and hypertension, patients must be in good health for their age. A history and physical examination must be within age-related normal limits, or if abnormal, considered clinically insignificant in the opinion of the investigator. Laboratory tests (CBC with differential, prothrombin and partial thrombo-plastin times, platelet count, and urinalysis and blood chemistry panel), must be normal, or if abnormal, considered clinically insignificant. Patients must have a normal ECG or, if abnormal, considered clinically insignificant. […] Essentially, all patients complete a fixed four-week placebo lead-in, to qualify for initiation of active treatment. Eligible patients then begin treatment with 250 mg/day of […]. This dose was administered orally on a daily basis for the next two (2) weeks, subject to dose-limiting side-effects, after which patients are force-titrated to 500 mg/day of […]. […] Thereafter, and for the final four (4) weeks of the study all patients were treated with placebo medication. […] Patients who were on anti-lipid medication prior to the initiation of the study continued their anti-lipid regime throughout the study. Primary Efficacy Evaluations • Supine diastolic blood pressure (SUDBP) measured at specified intervals; • Triglyceride, total cholesterol, LDL cholesterol, and HDL levels measured at specified intervals. […] Dosage Regimens-All patients receive treatment medication once daily, in the morning one hour before breakfast. At each dosing, the prescribed number of tablets will be taken orally, with water, to allow for the following dosing levels: The first dose of study medication is administered at clinic under the supervision of clinic personnel. Patients previously on anti-lipid therapy continued their anti-lipid regime unchanged throughout the study.

CYP2E1 = target: T3, CYP2E1 (Homo sapiens, UniProt P05181); assay: CYP2E1 inhibition assay (substrate MFC); format: in vitro ADME
T3 construct: purchased Gentest Corp; host or cells: insect cells (baculovirus)
T3 sequence (P05181 whole entry): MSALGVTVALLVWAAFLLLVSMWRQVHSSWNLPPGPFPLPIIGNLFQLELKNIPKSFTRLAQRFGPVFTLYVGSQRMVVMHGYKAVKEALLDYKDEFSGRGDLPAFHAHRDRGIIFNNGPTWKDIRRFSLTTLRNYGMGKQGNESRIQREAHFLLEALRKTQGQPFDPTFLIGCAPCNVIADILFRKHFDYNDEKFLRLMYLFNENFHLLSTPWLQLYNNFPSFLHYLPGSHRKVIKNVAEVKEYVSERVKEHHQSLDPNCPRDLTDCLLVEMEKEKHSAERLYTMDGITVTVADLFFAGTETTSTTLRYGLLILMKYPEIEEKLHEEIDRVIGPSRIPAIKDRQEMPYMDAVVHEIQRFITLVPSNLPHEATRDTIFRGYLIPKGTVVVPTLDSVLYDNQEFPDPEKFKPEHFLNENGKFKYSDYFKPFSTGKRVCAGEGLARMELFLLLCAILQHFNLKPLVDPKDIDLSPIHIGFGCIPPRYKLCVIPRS
Protocol: All determinations were performed in duplicate.

[2] = read-out: Expected Inhibitor IC50, value expected from assay validation (mean ± S.D., n ≧ 8 experiments)
[3] = read-out: Observed Inhibitor IC50

IC50 (CYP2E1; [3]) [µM]	IC50 (CYP2E1; value expected from assay validation (mean ± S.D., n ≧ 8 experiments), read-out: Expected Inhibitor IC50) [µM]	SMILES	IC50 (CYP2B6; [2]) [µM]	IC50 (CYP2B6; [3]) [µM]	IC50 (CYP2A6; [2]) [µM]	IC50 (CYP2A6; [3]) [µM]	Chol:HDL ratio V.1 [1]	HDL cholesterol V.1 [1]	LDL cholesterol V.1 [1]	Total cholesterol V.1 [1]	Triglycerides V.1 [1]	Triglycerides V.12 [1]	Chol:HDL ratio V.12 [1]	HDL cholesterol V.12 [1]	LDL cholesterol V.12 [1]	Total cholesterol V.12 [1]
		N[C@@H]1C[C@H]1c1ccccc1 (racemic) [Tranylcypromine]	8.82 ± 2.43	6.59	0.99 ± 0.209	0.605										
		CC(C)c1c(C(=O)Nc2ccccc2)c(-c2ccccc2)c(-c2ccc(F)cc2)n1CC[C@@H](O)C[C@@H](O)CC(=O)O [Lipitor, atorvastatin]					5.0 and 2.2	43 mg/dL and 62 mg/dL	123 mg/dL and 55 mg/dL	217 mg/dL and 136 mg/dL	255 mg/dL and 96 mg/dL	179 mg/dL and 106 mg/dL	5.6 and 2.1	48 mg/dL and 75 mg/dL	183 mg/dL and 63 mg/dL	267 mg/dL and 159 mg/dL
		CCC(C)(C)C(=O)O[C@H]1C[C@@H](C)C=C2C=C[C@H](C)[C@H](CC[C@@H]3C[C@@H](O)CC(=O)O3)[C@H]21 [Zocor, simvastatin]					3.9 and 6.3	39 mg/dL and 43 mg/dL	80 mg/dL and 185 mg/dL	152 mg/dL and 272 mg/dL	164 mg/dL and 222 mg/dL	212 mg/dL and 187 mg/dL	4.1 and 5.8	35 mg/dL and 40 mg/dL	68 mg/dL and 153 mg/dL	145 mg/dL and 230 mg/dL
		CC[C@H](C)C(=O)O[C@H]1C[C@H](O)C=C2C=C[C@H](C)[C@H](CC[C@@H](O)C[C@@H](O)CC(=O)O)[C@H]21 [Pravachol, pravastatin]					9.5	33 mg/dL		313 mg/dL	667 mg/dL	365 mg/dL	8.4	29 mg/dL		243 mg/dL
3.56	5.06 ± 1.96	CCN(CC)C(=S)S [DDTC, Diethyldithiocarbamic acid]														
